This is an account of results in patent publication US20240018122A1, “PYRIDAZINYL AMINO DERIVATIVES AS ALK5 INHIBITORS” (CHIESI FARMACEUTICI S.P.A., priority 2020, published 2024).

The first test deals with human ALK5 (Homo sapiens (Human), UniProt P36897). Nature of the test: ADP-GLO Kinases assay, inhibitory activity on ALK5. Type of test: biochemical.
Sequence of human ALK5 (P36897 80-503 limits assumed): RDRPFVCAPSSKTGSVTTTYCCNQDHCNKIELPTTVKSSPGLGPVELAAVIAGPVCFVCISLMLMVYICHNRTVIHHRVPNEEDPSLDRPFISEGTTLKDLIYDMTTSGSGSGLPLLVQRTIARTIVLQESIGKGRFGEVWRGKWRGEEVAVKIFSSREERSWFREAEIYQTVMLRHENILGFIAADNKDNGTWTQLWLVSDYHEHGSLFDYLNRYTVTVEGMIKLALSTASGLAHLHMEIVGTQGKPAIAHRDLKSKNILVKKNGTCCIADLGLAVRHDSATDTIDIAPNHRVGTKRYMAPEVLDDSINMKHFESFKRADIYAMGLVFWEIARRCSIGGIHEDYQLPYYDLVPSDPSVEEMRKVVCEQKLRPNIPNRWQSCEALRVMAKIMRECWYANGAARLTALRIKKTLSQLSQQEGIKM
Settings: not given
On to `CN1CC2(CCN(C(=O)Oc3ccc4c(Nc5cnnc(-c6cc(Cl)ccc6F)c5)ccnc4c3)C2)C1` [Example 119, 4-{[6-(5-Chloro-2-Fluorophenyl)Pyridazin-4-Yl]Amino}Quinolin-7-Yl 2-Methyl-2,6-Diazaspiro[3.4]Octane-6-Carboxylate], for which the IC50 (usually the point on the concentration scale where inhibition reaches its midpoint) was 1 to 5 nM. Compound `CN1CCN(C(=O)Oc2ccc3c(Nc4cnnc(-c5cc(Cl)ccc5F)c4)ccnc3c2)CC1` [Example 28, 4-{[6-(5-Chloro-2-Fluorophenyl)Pyridazin-4-Yl]Amino}Quinolin-7-Yl 4-Methylpiperazine-1-Carboxylate] showed an IC50 of 1 to 5 nM. Compound `Cc1nnc(-c2cc(Cl)ccc2F)cc1Nc1ccnc2cc(OC(=O)N3CCN(CCC4CCN(C)CC4)C(C(=O)OC4COC4)C3)ccc12` (centres unmarked) [Example 168, 1-(4-{[6-(5-chloro-2-fluorophenyl)-3-methylpyridazin-4-yl]amino}quinolin-7-yl) 3-oxetan-3-yl 4-[2-(1-methylpiperidin-4-yl)ethyl]piperazine-1,3-dicarboxylate] displayed an IC50 of 1 to 5 nM.

The test is the same for the next values; noted with them: purified recombinant human ALK5 2.6 nM, TGFβ1 peptide substrate, 25° C, 150 min incubation, ADP-Glo detection; read-out: ALK5 IC50.
With `Cc1nnc(-c2cc(Cl)ccc2F)cc1Nc1ccnc(NC(=O)CCN2CCOCC2)c1` [Example 78, N-(4-{[6-(5-Chloro-2-Fluorophenyl)-3-Methylpyridazin-4-Yl]Amino}Pyridin-2-Yl)-3-(Morpholin-4-Yl)Propanamide], the IC50 was < 1 nM. For the compound `CC(C)c1ccc(F)c(-c2cc(Nc3ccnc4cc(OCCN5CCN(C)CC5)ccc34)cnn2)c1` [Example 37, N-{6-[2-Fluoro-5-(Propan-2-Yl)Phenyl]Pyridazin-4-Yl}-7-[2-(4-Methylpiperazin-1-Yl)Ethoxy]Quinolin-4-Amine], the IC50 is < 1 nM. Consider `N#CCCN1CCN(CCC(=O)Nc2cc(Nc3cc(-c4cc(Cl)ccc4F)nnc3C(F)(F)F)ccn2)CC1` [Example 186, N-(4-{[6-(5-chloro-2-fluorophenyl)-3-(trifluoromethyl)pyridazin-4-yl]amino}pyridin-2-yl)-3-[4-(2-cyanoethyl)piperazin-1-yl]propenamide], for which the IC50 is < 1 nM. In the case of `O=C(Nc1cc(Nc2cnnc(-c3cc(Cl)ccc3F)c2)ccn1)C1CC1` [Example 7, N-(4-{[6-(5-Chloro-2-Fluorophenyl)Pyridazin-4-Yl]Amino}Pyridin-2-Yl)Cyclopropanecarboxamide], the IC50 was < 1 nM. As to `CN1CCC(COc2ccc3c(Nc4cnnc(-c5cc(Cl)ccc5F)c4)ccnc3c2)CC1` [Example 89, N-[6-(5-Chloro-2-Fluorophenyl)Pyridazin-4-Yl]-7-[(1-Methylpiperidin-4-Yl)Methoxy]Quinolin-4-Amine], the IC50 was < 1 nM.

With `CN1CCN(CCOc2ccc3c(Nc4cnnc(-c5cc(Cl)ccc5F)c4)ccnc3c2)CC1` [Example 12, N-[6-(5-Chloro-2-Fluorophenyl)Pyridazin-4-Yl]-7-[2-(4-Methylpiperazin-1-Yl)Ethoxy]Quinolin-4-Amine], the IC50 was < 1 nM. Still for that read-out and setting: then `Nc1nccc(Nc2cnnc(-c3cc(Cl)ccc3F)c2)n1` [Example C2, N4-[6-(5-chloro-2-fluorophenyl)pyridazin-4-yl]pyrimidine-2,4-diamine, reference compound], with 482 nM; and `Cc1nnc(-c2cc(Cl)ccc2F)cc1Nc1ccnc(NC(=O)CCN2C[C@@H]3C[C@H]2CN3C)c1` [Example 111, N-(4-{[6-(5-Chloro-2-Fluorophenyl)-3-Methylpyridazin-4-Yl]Amino}Pyridin-2-Yl)-3-[(1S,4S)-5-Methyl-2,5-Diazabicyclo[2.2.1]Heptan-2-Yl]Propanamide], with < 1 nM. `CN(CCC(=O)Nc1cc(Nc2cnnc(-c3cc(Cl)ccc3F)c2)ccn1)C1COC1` [Example 18, N-(4-{[6-(5-Chloro-2-Fluorophenyl)Pyridazin-4-Yl]Amino}Pyridin-2-Yl)-3-[Methyl(Oxetan-3-Yl)Amino]Propanamide]: the IC50 is < 1 nM. `Cc1nnc(-c2cc(Cl)ccc2F)cc1Nc1ccnc(Nc2ccn(CCN3CCN(C)CC3)n2)c1` [Example 167, N-4-[6-(5-Chloro-2-Fluorophenyl)-3-Methylpyridazin-4-Yl]-N-2-{1-[2-(4-Methylpiperazin-1-Yl)Ethyl]-1H-Pyrazol-3-Yl}Pyridine-2,4-Diamine]: the IC50 is < 1 nM. As for `CNC(=O)CCN1CCN(CCOc2ccc3c(Nc4cnnc(-c5cc(Cl)ccc5F)c4)ccnc3c2)CC1` [Example 63, 3-(4-{2-[(4-{[6-(5-Chloro-2-Fluorophenyl)Pyridazin-4-Yl]Amino}Quinolin-7-Yl)Oxy]Ethyl}Piperazin-1-Yl)-N-Methylpropanamide], the IC50 is < 1 nM. Turning to `CCOC1(CO)CN(CCC(=O)Nc2cc(Nc3cc(-c4cc(Cl)ccc4F)nnc3C)ccn2)C1` [Example 79, N-(4-{[6-(5-chloro-2-fluorophenyl)-3-methylpyridazin-4-yl]amino}pyridin-2-yl)-3-[3-ethoxy-3-(hydroxymethyl)azetidin-1-yl]propanamide], the IC50 is < 1 nM. For the compound `Cc1nnc(-c2cc(Cl)ccc2F)cc1Nc1ccnc(NC(=O)N2CCN(C)CC2)c1` [Example 85, N-(4-{[6-(5-Chloro-2-Fluorophenyl)-3-Methylpyridazin-4-Yl]Amino}Pyridin-2-Yl)-4-Methylpiperazine-1-Carboxamide], the IC50 was < 1 nM. Turning to `Cc1nnc(-c2cc(Cl)ccc2F)cc1Nc1ccnc(NC(=O)CN2CCCNCC2)c1` [Example 154, N-(4-{[6-(5-Chloro-2-Fluorophenyl)-3-Methylpyridazin-4-Yl]Amino}Pyridin-2-Yl)-2-(1,4-Diazepan-1-Yl)Acetamide], the IC50 was < 1 nM. Consider `Cc1nnc(-c2cc(Cl)ccc2F)cc1Nc1ccnc(NC(=O)CCN2CCN(C)C(C(=O)OC3COC3)C2)c1` (centres unmarked) [Example 129, oxetan-3-yl 4-{2-[(4-{[6-(5-chloro-2-fluorophenyl)-3-methylpyridazin-4-yl]amino}pyridin-2-yl)carbamoyl]ethyl}-1-methylpiperazine-2-carboxylate], for which the IC50 was < 1 nM. Regarding `COC(=O)CC1CN(C)CCN1CCC(=O)Nc1cc(Nc2cc(-c3cc(Cl)ccc3F)nnc2C)ccn1` (centres unmarked) [Example 101, methyl 2-(1-{2-[(4-{[6-(5-chloro-2-fluorophenyl)-3-methylpyridazin-4-yl]amino}pyridin-2-yl)carbamoyl]ethyl}-4-methylpiperazin-2-yl)acetate], the IC50 is < 1 nM.

For `OCCN1CCN(CCOc2ccc3c(Nc4cnnc(-c5cc(Cl)ccc5F)c4)ccnc3c2)CC1` [Example 72, 2-(4-{2-[(4-{[6-(5-Chloro-2-Fluorophenyl)Pyridazin-4-Yl]Amino}Quinolin-7-Yl)Oxy]Ethyl}Piperazin-1-Yl)Ethan-1-Ol], the IC50 was < 1 nM. For the compound `Cc1nnc(-c2cc(Cl)ccc2F)cc1Nc1ccnc(NC(=O)CCN2CCC(F)(F)CC2)c1` [Example 139, N-(4-{[6-(5-Chloro-2-Fluorophenyl)-3-Methylpyridazin-4-Yl]Amino}Pyridin-2-Yl)-3-(4,4-Difluoropiperidin-1-Yl)Propanamide], the half-maximal inhibitory concentration (IC50) is < 1 nM. For the compound `Cc1nnc(-c2cc(Cl)ccc2F)cc1Nc1ccnc(NC(=O)CCN2CCN(C)C(CO)C2)c1` (centres unmarked) [Example 170], the IC50 was < 1 nM.

On to `CN1CCC2(CC1)CN(C(=O)Oc1ccc3c(Nc4cnnc(-c5cc(Cl)ccc5F)c4)ccnc3c1)C2` [Example 115, 4-{[6-(5-Chloro-2-Fluorophenyl)Pyridazin-4-Yl]Amino}Quinolin-7-Yl 7-Methyl-2,7-Diazaspiro[3.5]Nonane-2-Carboxylate], for which the IC50 was < 1 nM.

Consider `COC(=O)CC1CN(CCC(=O)Nc2cc(Nc3cc(-c4cc(Cl)ccc4F)nnc3C)ccn2)CCN1C` (centres unmarked) [Example 98, Methyl 2-(4-{2-[(4-{[6-(5-Chloro-2-Fluorophenyl)-3-Methylpyridazin-4-Yl]Amino}Pyridin-2-Yl)Carbamoyl]Ethyl}-1-Methylpiperazin-2-Yl)Acetate], for which the IC50 is < 1 nM. With `COC(=O)C1CN(CCC(=O)Nc2cc(Nc3cc(-c4cc(Cl)ccc4F)nnc3C)ccn2)CCN1C(C)C` (centres unmarked) [Example 113, Methyl 4-{2-[(4-{[6-(5-Chloro-2-Fluorophenyl)-3-Methylpyridazin-4-Yl]Amino}Pyridin-2-Yl)Carbamoyl]Ethyl}-1-(Propan-2-Yl)Piperazine-2-Carboxylate], the IC50 is < 1 nM. For `Cc1nnc(-c2cc(Cl)ccc2F)cc1Nc1ccnc2cc(OC(=O)N3CCN(CCC4CCN(C)CC4)CC3)ccc12` [Example 81, 4-{[6-(5-Chloro-2-Fluorophenyl)-3-Methylpyridazin-4-Yl]Amino}Quinolin-7-Yl 4-[2-(1-Methylpiperidin-4-Yl)Ethyl]Piperazine-1-Carboxylate], the IC50 is < 1 nM. Take `Cc1nnc(-c2cc(Cl)ccc2F)cc1Nc1ccnc2cc(OC(=O)N3CCC(N4CCC4)CC3)ccc12` [Example 153, 4-{[6-(5-Chloro-2-Fluorophenyl)-3-Methylpyridazin-4-Yl]Amino}Quinolin-7-Yl 4-(Azetidin-1-Yl)Piperidine-1-Carboxylate]: the IC50 is < 1 nM. As for `Cc1nnc(-c2cc(Cl)ccc2F)cc1Nc1ccnc(NC(=O)CN2CCN(CC(F)(F)F)CC2)c1` [Example 131, N-(4-{[6-(5-Chloro-2-Fluorophenyl)-3-Methylpyridazin-4-Yl]Amino}Pyridin-2-Yl)-2-[14-(2,2,2-Trifluoroethyl)Piperazin-1-Yl]Acetamide], the IC50 was < 1 nM. As for `COc1cc2c(Nc3cnnc(-c4cc(Cl)ccc4F)c3)ccnc2cc1OCCN1CCN(C)CC1` [Example 87, N-[6-(5-Chloro-2-Fluorophenyl)Pyridazin-4-Yl]-6-Methoxy-7-[2-(4-Methylpiperazin-1-Yl)Ethoxy]Quinolin-4-Amine], the IC50 was < 1 nM. Consider `Fc1ccc(Cl)cc1-c1cc(Nc2ccncc2)c(C(F)(F)F)nn1` [Example 181], for which the IC50 is < 1 nM. Regarding “1-(4-{[6-(2-Chloro-5-Fluorophenyl)-3-Methylpyridazin-4-Yl]Amino}Pyridin-2-Yl)-3-[(1-Methylpiperidin-4-Yl)Methyl]Urea [Example 142]”, the IC50 was < 1 nM. On to `COC(=O)NCCN1CCN(CCOc2ccc3c(Nc4cnnc(-c5cc(Cl)ccc5F)c4)ccnc3c2)CC1` [Example 77, Methyl N-[2-(4-{2-[(4-{[6-(5-Chloro-2-Fluorophenyl)Pyridazin-4-Yl]Amino}Quinolin-7-Yl)Oxy]Ethyl}Piperazin-1-Yl)Ethyl]Carbamate], for which the IC50 was < 1 nM.
